According to PubChem BioAssay AID1117337 (Cheminformatics & Chemogenomics Research Group (CCRG), …, 2015):
Values joined by “and” are separate entries in the source; they are usually repeats but may differ in a detail not shown here. Identical values can stand only once. Active and inactive are the calls of the source. The rule behind the calls is not given here.

System: ADSC/ECFC co-culture, VEGF-stimulated, CD31 tube area
Experiment: ADSC/ECFC co-culture angiogenesis inhibition – imaging, VEGF stimulation, CD31 staining, tube area, IC50, dose response (AID 1117337)

Compound	IC50
COc1ccc([C@@H]2Sc3ccccc3NC(=O)[C@@H]2O)cc1	> 10 µM (inactive)
Clc1ccc(C(Cn2ccnc2)OCc2ccc(Sc3ccccc3)cc2)c(Cl)c1 (configuration not stated)	> 10 µM (inactive)
CCCCCCC[N+](CC)(CC)CCCCc1ccc(Cl)cc1	6.34 µM (inactive)
CCCCCCCC(=O)OCC(COC(=O)CCCCCCC)OC(=O)CCCCCCC	> 10 µM (inactive)
Nc1nc(=O)n([C@@H]2O[C@H](CO)[C@@H](O)[C@@H]2F)cc1I	3.47 µM
OC[C@@H](O)[C@H](O)[C@H](O)[C@@H](O)CO	> 10 µM (inactive)
COC(=O)c1ccccc1C(=O)OC	> 10 µM (inactive)
Cc1cc(O)c2c(O)c3c(O)cccc3cc2c1	> 10 µM (inactive)
Cc1ccc(C(=O)Oc2ccc(C(O)CNC(C)(C)C)cc2OC(=O)c2ccc(C)cc2)cc1 (configuration not stated)	> 10 µM (inactive)
Clc1ccc(CO/N=C(\Cn2ccnc2)c2ccc(Cl)cc2Cl)c(Cl)c1	> 10 µM (inactive)
CCCCCCCCCCCCCC[N+](C)(C)Cc1ccccc1	3.01 µM
Oc1ccc(Cl)cc1Cc1cc(Cl)ccc1O	2.32 µM
Cc1nc2ccc(CN(C)c3ccc(C(=O)N[C@@H](CCC(=O)O)C(=O)O)s3)cc2c(=O)[nH]1	0.354 µM
CO[C@H]1O[C@@H]2O[C@@]3(C)CC[C@H]4[C@H](C)CC[C@@H]([C@@H]1C)[C@@]24OO3	> 10 µM (inactive)
NC1=NCC2c3ccccc3Cc3ccccc3N12 (configuration not stated)	> 10 µM (inactive)
CCCCC(CC)CN=C(N)NC(N)=NCCCCCCN=C(N)NC(N)=NCC(CC)CCCC (configuration not stated)	0.408 µM
CCN[C@@H](C)Cc1cccc(C(F)(F)F)c1	> 10 µM (inactive)
O=C(O)CCC(=O)OC[C@@H](NC(=O)C(Cl)Cl)[C@H](O)c1ccc([N+](=O)[O-])cc1	> 10 µM (inactive)
CCCCC(=O)O[C@H]1CC[C@H]2[C@@H]3CCc4cc(O)ccc4[C@@H]3CC[C@]12C	> 10 µM (inactive)
CCCCN1CCCC1C(=O)Nc1c(C)cc(C)cc1C (configuration not stated)	> 10 µM (inactive)
CC(=O)N(CC(O)CN(C(C)=O)c1c(I)c(C(=O)NCC(O)CO)c(I)c(C(=O)NCC(O)CO)c1I)c1c(I)c(C(=O)NCC(O)CO)c(I)c(C(=O)NCC(O)CO)c1I (configuration not stated)	> 10 µM (inactive)
Nc1nc(=S)c2[nH]cnc2[nH]1	0.622 µM
OC[C@H]1O[C@@H](n2cnc3c(=S)nc[nH]c32)[C@H](O)[C@@H]1O	1.42 µM
Cc1c(C)c2c(c(C)c1O)CCC(C)(COc1ccc(CC3SC(=O)NC3=O)cc1)O2 (configuration not stated)	5.14 µM (inactive)
CCCCCCCCCCCCCCCC[N+](C)(C)Cc1ccccc1	2.53 µM

Compound	IC50
CC(=O)N(O)CCCCCNC(=O)CCC(=O)N(O)CCCCCNC(=O)CCC(=O)N(O)CCCCCN	4.53 µM
CSc1ccc2c(c1)N(CCC1CCCCN1C)c1ccccc1S2 (configuration not stated)	> 10 µM (inactive)
Cc1cc2nc3ccc(=[N+](C)C)cc-3sc2cc1N	2.45 µM
COc1ccc(CCN2CCC(Nc3nc4ccccc4n3Cc3ccc(F)cc3)CC2)cc1	> 10 µM (inactive)
COC(=O)C1=C(C)NC(C)=C(C(=O)O[C@@H]2CCCN(Cc3ccccc3)C2)[C@@H]1c1cccc([N+](=O)[O-])c1	> 10 µM (inactive)
CC[C@]1(O)C[C@@H]2CN(CCc3c([nH]c4ccccc34)[C@@](C(=O)OC)(c3cc4c(cc3OC)N(C)[C@H]3[C@@](O)(C(=O)OC)[C@H](OC(C)=O)[C@]5(CC)C=CCN6CC[C@]43[C@@H]65)C2)C1	0.0026 µM and 0.0023 µM
CCC1C(=O)OCC1Cc1cncn1C (configuration not stated)	> 10 µM (inactive)
CCCCCCCCCCCCCCCC[N+](C)(C)CCN(Cc1ccc(OC)cc1)c1ncccn1	3.07 µM
O=c1oc2c(O)c(O)cc3c(=O)oc4c(O)c(O)cc1c4c23	> 10 µM (inactive)
CCC1Nc2cc(Cl)c(S(N)(=O)=O)cc2S(=O)(=O)N1 (configuration not stated)	> 10 µM (inactive)
NCCNc1ccc(NCCN)c2c1C(=O)c1ccncc1C2=O	0.0465 µM
O=C1CC(c2ccc(Cl)cc2)CC(=O)N1	> 10 µM (inactive)
COc1ccccc1OCCNCC(O)COc1cccc2[nH]c3ccccc3c12 (configuration not stated)	> 10 µM (inactive)
CCCCC[C@@H](O)CC[C@H]1[C@@H]2Cc3cccc(OCC(=O)O)c3C[C@@H]2C[C@@H]1O	> 10 µM (inactive)
O=c1[nH]c(=O)n([C@H]2C[C@H](O)[C@@H](CO)O2)cc1F	0.0216 µM
CCc1cccc(N(C)C(N)=Nc2cccc3ccccc23)c1	> 10 µM (inactive)
O=c1[nH]sc2cc(Cl)ccc12	> 10 µM (inactive)
S=C=Nc1ccc(N=C=S)cc1	> 10 µM (inactive)
CCOC(=O)C1=C(C)NC(C)=C(C(=O)OCC)C1c1ccccc1/C=C/C(=O)OC(C)(C)C	> 10 µM (inactive)
CC(C)=CCOc1ccc(/C=C/C(=O)c2ccc(OCC=C(C)C)cc2OCC(=O)O)cc1	> 10 µM (inactive)
COc1ccc2c(c1)c1c3n2CCN(C)C3=NCC1	> 10 µM (inactive)
O=[N+]([O-])c1cccc(S(=O)(=O)NCCNS(=O)(=O)c2cccc([N+](=O)[O-])c2)c1	> 10 µM (inactive)
CCCCCCCCCCCCCCCC(=O)OCC=C(C)C=CC=C(C)C=CC1=C(C)CCCC1(C)C	> 10 µM (inactive)
COc1cc(C=C2CCC/C(=C\c3ccc(O)c(OC)c3)C2=O)ccc1O	> 10 µM (inactive)
COc1ccc(/C=N/NC(=O)c2ccncc2)cc1OC	> 10 µM (inactive)

Compound	IC50
CC(=O)Oc1ccc(C2(c3ccc(OC(C)=O)cc3)Oc3ccccc3NC2=O)cc1	2.27 µM
O=C(Nc1ccc(Br)cc1)c1cc(Br)cc(Br)c1O	1.81 µM
COCCOC(=O)C1=C(C)NC(C)=C(C(=O)OC/C=C/c2ccccc2)C1c1cccc([N+](=O)[O-])c1 (configuration not stated)	6.42 µM (inactive)
Cn1cc(S(C)=O)c(=O)c2ccc(F)cc21 (configuration not stated)	> 10 µM (inactive)
C[S+](CC[C@H](N)C(=O)O)C[C@H]1O[C@@H](n2cnc3c(N)ncnc32)[C@H](O)[C@H]1O (some centres not stated)	> 10 µM (inactive)
COc1cc(-c2ccc(=O)[nH]n2)ccc1OC(F)F	1.22 µM
CN1CCN(CCCN2c3ccccc3Sc3ccc(S(=O)(=O)N(C)C)cc32)CC1	> 10 µM (inactive)
COC(=O)Nc1nc2ccc(C(=O)c3cccs3)cc2[nH]1	0.102 µM
CCCCCCCCCCCC[N+](C)(C)Cc1ccccc1	> 10 µM (inactive)
Cc1cc(=O)c2c(O)c3c(O)cc(=O)c4c3c3c(cc(O)c1c23)C(C)(C)C=4O	0.101 µM
Cc1cc(O)c2ccccc2c1O	4.89 µM
CN1CCN(C2Cc3ccccc3Sc3ccc(Cl)cc32)CC1 (configuration not stated)	5.23 µM (inactive)
O=C(OCCO)c1ccccc1O	> 10 µM (inactive)
O=C(O)c1ccc(-n2nc(-c3ccccc3O)nc2-c2ccccc2O)cc1	2.09 µM
CCC1=C[C@@H]2CN(C1)Cc1c([nH]c3ccccc13)[C@@](C(=O)OC)(c1cc3c(cc1OC)N(C)[C@H]1[C@@](O)(C(=O)OC)[C@H](OC(C)=O)[C@]4(CC)C=CCN5CC[C@]31[C@@H]54)C2	0.0055 µM
CC(C)(CO)[C@@H](O)C(=O)NCCC(=O)NCCSSCCNC(=O)CCNC(=O)[C@H](O)C(C)(C)CO	> 10 µM (inactive)
O=C(Nc1ccc(Cl)cc1)Nc1ccc(Cl)c(Cl)c1	> 10 µM (inactive)
O=C(O)c1ccc2[nH]cc(CCCCN3CC=C(c4ccccc4)CC3)c2c1	> 10 µM (inactive)
CC[C@]12CCCN3CCc4c(n(c5ccccc45)C(=O)C1)[C@@H]32	> 10 µM (inactive)
COC(=O)CCCCC(CCSS/C(CCO)=C(\C)N(C=O)Cc1cnc(C)nc1N)SC(C)=O (configuration not stated)	> 10 µM (inactive)
CCCCCCCCCCCCCC[N+](C)(C)C	1.9 µM
COc1cc2nc(N3CCN(C(=O)C4COc5ccccc5O4)CC3)nc(N)c2cc1OC (configuration not stated)	> 10 µM (inactive)
C=CCN1CC[C@]23CCCC[C@H]2[C@H]1Cc1ccc(O)cc13	> 10 µM (inactive)
Oc1ccc(Cl)cc1Sc1cc(Cl)ccc1O	3.53 µM
Nc1cc(C(F)(F)F)ccc1S	> 10 µM (inactive)

Compound	IC50
COc1cccc2c1C(=O)c1c(O)c3c(c(O)c1C2=O)C[C@@](O)(C(=O)CO)CC3OC1CC(N2CCOC(OC)C2)C(O)C(C)O1 (some centres not stated)	0.003 µM
Cc1cc(-c2ccc(N=Nc3c(S(=O)(=O)O)cc4cc(S(=O)(=O)O)cc(N)c4c3O)c(C)c2)ccc1N=Nc1c(S(=O)(=O)O)cc2cc(S(=O)(=O)O)cc(N)c2c1O	> 10 µM (inactive)
CCCCCCCCCCCCCCCCCCNC(=O)OC1CCN(C(=O)OC[C@H](COC(=O)N(Cc2cccc[n+]2CC)C(=O)c2ccccc2OC)OC)CC1	1.5 µM
CCN(CC)CCNc1ccc(CO)c2sc3ccccc3c(=O)c12	8.35 µM (inactive)
O=C(Nc1ccc(S(=O)(=O)N2CCOCC2)cc1)c1cc(Cl)ccc1NS(=O)(=O)c1ccc(Cl)s1	> 10 µM (inactive)
CC1CCC(C(C)C)C(OC(=O)c2ccccc2O)C1 (configuration not stated)	> 10 µM (inactive)
Oc1ccc2[nH]cc(CCCCN3CC=C(c4ccccc4)CC3)c2c1	4.04 µM
Cc1c(O)cccc1C(=O)N[C@@H](CSc1ccccc1)[C@H](O)CN1C[C@H]2CCCC[C@H]2C[C@H]1C(=O)NC(C)(C)C	> 10 µM (inactive)
O=NN(CCCl)C(=O)NC1CCCCC1	> 10 µM (inactive)
O=C(OCc1ccccc1)c1cccnc1	> 10 µM (inactive)
CCOC(=O)NC(C)(C)Cc1ccc(Cl)cc1	> 10 µM (inactive)
Cc1ccccc1C(=O)Nc1ccc(C(=O)N2CCCC(N(C)C)c3ccccc32)cc1 (configuration not stated)	> 10 µM (inactive)
CCCCCCCCCCC[C@@H](C[C@@H]1OC(=O)[C@H]1CCCCCC)OC(=O)[C@H](CC(C)C)NC=O	> 10 µM (inactive)
COC(=O)c1nc(Cl)c(Cl)nc1N	0.865 µM
ClC1=C(Cl)C2(Cl)C(CBr)CC1(Cl)C2(Cl)Cl (configuration not stated)	> 10 µM (inactive)
Cc1nc(Nc2ncc(C(=O)Nc3c(C)cccc3Cl)s2)cc(N2CCN(CCO)CC2)n1	> 10 µM (inactive)
Oc1c(I)cc(Cl)c2cccnc12	> 10 µM (inactive)
C[C@@]12C(=O)OC(=O)[C@]1(C)C1CCC2O1	1.23 µM
Cc1ccc2c(Br)cc(Br)c(O)c2n1	> 10 µM (inactive)
C/C=C(/C(=C/C)c1ccc(OC(C)=O)cc1)c1ccc(OC(C)=O)cc1	> 10 µM (inactive)
CC(=O)Oc1ccccc1C(=O)Nc1ncc([N+](=O)[O-])s1	2.06 µM
O=S(c1cc(Cl)cc(Cl)c1O)c1cc(Cl)cc(Cl)c1O	> 10 µM (inactive)
